From patent US9497963B2, “Methods and compositions for control of gypsy moth, Lymantria dispar” (Simon Fraser University, priority 2008, dated 2016)
Entries after “also recorded” stand apart in the source; their conditions may differ.

Assays:
[1] = test system: male gypsy moth antenna response to mixed pheromone/modulator plume; test: EAG peak broadening (PB) (Example 11); set-up: species or system Lymantria dispar; conditions: for activity (% peak broadening): mixed plume, 100 μg compound and 100 ng pheromone (puff v vs puff ii)
Procedure: A mixed pheromone/modulator plume could elicit a prolonged response (FIG. 1A, puff v; FIG. 2), and this was termed peak broadening (PB). PB was calculated from the EAG traces as follows: PB=100×(Δtv−Δtii)/Δtii
Where Δt was the width of the EAG peak (in s) from the start of the depolarization to the return to background potential.

gypsy moths = test: Field test of trap catches, Northern Japan 2009 (Example 12); format: in vivo, Lymantria dispar; conditions: (+)-dis 40 μg/lure & compound 40 mg/lure, vs (+)-dis alone
Procedure: Ten traps were used per treatment. The solvent used to deliver the compounds onto the lures was doubly distilled hexane. The hexane was evaporated prior to packing and shipping the lures. The field test was conducted in 10 replicates in Northern Japan. The test was conducted Aug. 16-18, 2009, in an area where gypsy moths are known to live. […] Traps were arranged randomized, placed on platforms. The experiment was conducted blind. The lures contained 40 μg disparlure/lure, a low dose for a field trial (typically 100 μg-1 mg are used). For each treatment, 10 traps were deployed.

male gypsy moth antenna = test: EAG effects of 3c{1,3} with (+)-disparlure at different ratios (Example 14); set-up: species or system Lymantria dispar; conditions: for STI (short-term inhibition): mixture relative to first puff of pure (+)-disparlure
Source text: The compound has the following effects in the EAG at the following ratios: […]

moths = test: Simple behavioural tests (films of moths exposed to puffs); format: in vivo, Lymantria dispar; conditions: (+)-disparlure:compound 1:1000 vs pheromone alone
[2] = test system: response of L. dispar antennae to (+)-disparlure; test: Competitive electroantennogram (EAG) screen, inhibition of response to (+)-disparlure (Example 4); set-up: species or system Lymantria dispar; conditions: for inhibition at 0.001 mg / inhibition at 0.01 mg / inhibition at 0.1 mg: Lymantria dispar, means ± S.E.; for inhibition at 0.001 mg: dose 1 μg on cartridge; for inhibition at 0.01 mg: dose 10 μg on cartridge; for inhibition at 0.1 mg: dose 100 μg on cartridge
Procedure: In this assay, libraries and individual compounds are tested for their ability to inhibit the antennal response to the sex attractant pheromone of the gypsy moth, (7R,8S) 2-methyl-7,8-epoxyoctadecane, also known as (+)-disparlure. The controls consisted of a puff of clean air (negative) or of air passed over a cartridge impregnated with (+)-disparlure (100 ng) (positive). The treatments consisted of 100 ng of (+)-disparlure in combination with a compound or library at 1, 10 or 100 μg, on a cartridge over which the air puff was passed. The small arrows above the trace denote the times where the air was puffed over the antenna.
For some compounds, such as the para Compounds 2c{n}, 2c{n,n} and libraries 3c{n,1-5}, EAG competitive assays were performed to investigate whether the diethers inhibit the response of L. dispar antennae to the main component of the sex attractant pheromone cis-(7R,8S)-epoxy-2-methyloctadecane [(+)-disparlure] (FIG. 4). For EAGs a male moth antenna was mounted and placed in front of a stimulus-delivery glass tubing (160×5 mm ID) with a side orifice (2 mm diam) near (2 cm) the distal opening. The tubing was connected to one port of an apparatus (Stimulus Controller CS-05, Syntech Research and Equipment, NL-1200BM Hilversum, The Netherlands) that generated a constant stream of clean air (300 ml/min). The second port of the apparatus was connected to a Pasteur pipette inserted through the side orifice of the stimulus-delivery tubing. The test stimulus was applied to a disc of Whatman #1 filter paper inside the Pasteur pipette and was discharged through a 0.3-sec pulse of air (600 ml/min) Receptor potentials of the antennae in response to test stimuli were recorded with a Syntech IDAC probe, amplifier and interfaced board, and were analyzed with EAG Syntech Software Version 2.4 (1996) Inhibition (%) was calculated as: % inhibition=(Dd−Ds)/Dd×100 (eq. 1)
Where Dd is the depolarization observed with pure disparlure (corrected for clean air background) and Ds is the depolarization with disparlure+sample. See FIG. 4 for a representative EAG inhibition assay trace.

[3] = test system: male gypsy moth antenna response to odorants other than (+)-1; test: Long-term inhibition of responses to other pheromone and host plant odorants, EAG (Example 8, first objective); set-up: species or system Lymantria dispar; conditions: antagonist 100 μg
Procedure: To determine whether the long-term inhibitory effects of 3c{2,3} and DEET are specific to (+)-1 or also apply to other odorants, compound 3c{2,3} and DEET were tested further with other odorants: (−)-1, racemic 1, dispar alkene, methyl eugenol and 1-hexanol.
These included (−)-1, racemic 1, dispar alkene (the alkene corresponding to the carbon framework of 1), methyl eugenol (a characteristic oak wood odorant) and 1-hexanol (a green leaf volatile, shown previously to be detected by gypsy moth antennae). For the pure odorant puffs, (−)-1 and racemic 1 were administered at 100 ng/cartridge, the alkene, methyl eugenol was administered at 1 μg/cartridge and 1-hexanol was administered at 100 μg/cartridge. The antagonists were both administered at 100 μg/cartridge, mixed with the appropriate dose of the odorant. The puff order was: i) air, ii) pure odorant, iii) odorant+antagonist, iv) pure odorant. All puffs were corrected for the air response as in Eq. 1. STI values were obtained from the depolarization […]. LTI values were obtained by comparing the depolarization of puff iv relative to that of puff ii.

[4] = test system: male gypsy moth antennae response to pheromone (+)-1 with plant odors; test: Effect on mixed pheromone/plant odorant stimulus, EAG (Example 8, second objective); set-up: species or system Lymantria dispar
Procedure: A second objective for this experiment was to determine whether the oak volatiles, methyl eugenol and 1-hexanol, can enhance the antennal response to (+)-1 and whether the mixed pheromone/plant odorant stimulus can be inhibited by compound 3c{2,3} or DEET. The puff order was: i) air, ii) pure (+)-1 (100 ng), iii) (+)-1 (100 ng) and plant odorant (1 μg for methyl eugenol and 100 μg for 1-hexanol), iv) (+)-1 and plant odorant as in iii+antagonist (100 μg), v) same as in iii. Depolarizations were corrected for the air response as in Eq. 1 and the short-term effects were calculated for puff iii relative to puff ii, and for puff iv relative to puff ii. Long-term effects were calculated for puff v relative to puff iii (for LTI of the mixed pheromone/plant odorant plume) and for puff v relative to puff ii (to determine whether long-term effects of the plant odorant and of the antagonist cancel).

[5] = odorant racemic disparlure 100 ng
[6] = plant synergist 1-hexanol 100 μg
[7] = plant synergist methyl eugenol 1 μg

Compound	activity (% peak broadening) [1] [%]	trap catches in the field (gypsy moths)	inhibitory activity on antennal pheromone responses (in words) [2]	inhibition at 0.001 mg [2] [%]	inhibition at 0.01 mg [2] [%]	inhibition at 0.1 mg [2] [%]	other results
CCCOc1ccc(OC)cc1 [3c{1,3}, 1-methoxy-4-propoxy-benzene]	175 ± 23	enhanced the trap catches significantly	–	–	–	–	peak broadening / prolongation of the EAG signal (in words) ([1]; 1:1000 ratios): significant prolongation of the EAG signal; also recorded: strongest peak broadening compound; STI (short-term inhibition) (male gypsy moth antenna; 100 ng (+)-disparlure + 1 μg 3c{1,3}, ratio 1:10 by mass): 28 ± 16 (6); STI (short-term inhibition) (male gypsy moth antenna; 100 ng (+)-disparlure + 10 μg 3c{1,3}, ratio 1:100 by mass): −2 ± 5 (6); STI (short-term inhibition) (male gypsy moth antenna; 100 ng (+)-disparlure + 100 μg 3c{1,3}, ratio 1:1000 by mass): 48 ± 14 (6); LTI (long-term inhibition) (male gypsy moth antenna; (+)-disparlure puff immediately after last mixed puff (1:1000 ratio), relative to first (+)-disparlure reference puff): 39 ± 12 (6); behaviour of moths exposed to puffs (moths): excited and violently flap their wings much longer
CCCOc1ccc(OCCC)cc1 [3c{3,3}, 1,4-Dipropoxy benzene]	–	–	moderate inhibitory activity	5 ± 16	55 ± 7	-3 ± 15	–
COc1ccc(OC)cc1 [3c{1,1}, 1,4-Dimethoxy benzene]	77 ± 12	–	–	4 ± 6	-8 ± 9	38 ± 7	–
CC(C)CCOc1ccc(OCCC(C)C)cc1 [3c{5,5}, 1,4-Di-(3-methyl-butyloxy) benzene]	–	–	moderate inhibitory activity	63 ± 12	38 ± 22	64 ± 11	–
CCOc1ccc(OCC)cc1 [3c{2,2}, 1,4-Diethoxy benzene]	71 ± 30	–	–	4 ± 13	45 ± 6	-3 ± 13	–
CCCOc1ccc(OCC)cc1 [3c{2,3}, 1-ethoxy-4-propoxy benzene]	94 ± 24	enhanced the trap catches significantly	–	–	–	–	long-term activity (%) ([3]; odorant 1-hexanol 100 μg): 29 ± 18%; short-term activity (%) ([3]; odorant 1-hexanol 100 μg): −34 ± 28%; long-term activity (%) ([3]; odorant (−)-disparlure 100 ng): 43 ± 12%; long-term activity (%) ([3]; odorant dispar alkene 1 μg): 39 ± 12%; short-term activity (%) ([3]; odorant dispar alkene 1 μg): −244 ± 15%; long-term activity (%) ([3]; odorant methyl eugenol 1 μg): 46 ± 24%; long-term activity (%) [3, 5]: 69 ± 5%; short-term activity (%) [3, 5]: −154 ± 45%; short-term effect with plant synergist + antagonist ([4]; (+)-1 100 ng + 1-hexanol 100 μg + antagonist 100 μg): −99 ± 60 (5); short-term effect with plant synergist + antagonist ([4]; (+)-1 100 ng + methyl eugenol 1 μg + antagonist 100 μg): −125 ± 95 (4); long-term effect on (+)-1 response [4, 6]: 20 ± 18 (5); long-term effect on the mixed (+)-1/plant odor plumes [4, 6]: 5 ± 24 (5); long-term effect on (+)-1 response [4, 7]: 12 ± 33 (4); long-term effect on the mixed (+)-1/plant odor plumes [4, 7]: 11 ± 47 (4)
